As usually defined, the speed of sound is the propagation velocity of pressure waves in the medium. Usually mass density stands for mass per unit of volume.

The conditions of the series: 101.33 kPa, Liquid; for speed of sound: Sing-around technique in a fixed-path interferometer; for mass density: Vibrating tube method.

Numbers after ± are expanded uncertainties.

`Cc1ccccc1C` [1,2-dimethylbenzene]: the speed of sound is, setting by setting: (298.15 K) 1346.2 ± 0.7 m/s; (303.15 K) 1326.2 ± 0.7 m/s; (308.15 K) 1306.1 ± 0.7 m/s. Further, the mass density is on record as 875.91 ± 1 kg/m3 (298.15 K), 871.7 ± 1 kg/m3 (303.15 K) and 867.48 ± 1 kg/m3 (308.15 K).
For the compound `Cc1ccccc1Cl` [2-chlorotoluene], the speed of sound reads like this: (298.15 K) 1298.7 ± 1 m/s; (303.15 K) 1280.7 ± 1 m/s; (308.15 K) 1262.7 ± 1 m/s. In addition, the mass density by setting is: (298.15 K) 1077.3 ± 1 kg/m3; (303.15 K) 1072.5 ± 1 kg/m3; (308.15 K) 1067.6 ± 1 kg/m3.
Consider `c1ccccc1` [benzene], for which the speed of sound reads like this: (298.15 K) 1299.4 ± 0.8 m/s; (303.15 K) 1276.1 ± 0.77 m/s; (308.15 K) 1252.9 ± 0.76 m/s. The mass density is, setting by setting: (298.15 K) 873.54 ± 1 kg/m3; (303.15 K) 868.2 ± 1 kg/m3; (308.15 K) 862.84 ± 1 kg/m3.
In the case of `C1CCOCC1` [tetrahydropyran], the speed of sound was found to be 1269.8 ± 0.8 m/s (298.15 K), 1246.8 ± 0.8 m/s (303.15 K) and 1224.4 ± 0.8 m/s (308.15 K). Besides, the mass density (298.15 K) is recorded as 879.13 ± 1 kg/m3, the mass density (303.15 K) was determined as 873.99 ± 1 kg/m3 and the mass density (308.15 K) was found to be 868.83 ± 1 kg/m3.
As for `Cc1ccccc1` [toluene], the speed of sound (298.15 K) is given as 1304.6 ± 0.8 m/s, the speed of sound (303.15 K) is 1283.2 ± 0.8 m/s and the speed of sound (308.15 K) is listed as 1261.8 ± 0.8 m/s. The mass density is 862.18 ± 1 kg/m3 (298.15 K), 857.51 ± 1 kg/m3 (303.15 K) and 852.82 ± 1 kg/m3 (308.15 K).
